Reference: US8895733B2 (Novartis AG, priority 2010, dated 2014)

Molecular target: T1, Nav 1.7 (Homo sapiens, UniProt Q15858)
T1 construct: expressed in transfected cells
Experiment: Whole-cell voltage clamp electrophysiology, automated patch clamp (marker c in Table of Examples)
Format: cell-based
Settings: marker c = Automated patch clamp data; read-out: Nav 1.7 activity
In short: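 Human NaV1.7 currents were recorded by whole-cell automated patch clamp, on IonWorks Quattro or another automated platform, typically in perforated-patch configuration. The stimulus protocol was designed to probe block mainly of the inactivated state, with a typical sweep stepping from about −65 mV holding to −10 mV, then −100 mV.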

T1 sequence (Q15858 whole entry): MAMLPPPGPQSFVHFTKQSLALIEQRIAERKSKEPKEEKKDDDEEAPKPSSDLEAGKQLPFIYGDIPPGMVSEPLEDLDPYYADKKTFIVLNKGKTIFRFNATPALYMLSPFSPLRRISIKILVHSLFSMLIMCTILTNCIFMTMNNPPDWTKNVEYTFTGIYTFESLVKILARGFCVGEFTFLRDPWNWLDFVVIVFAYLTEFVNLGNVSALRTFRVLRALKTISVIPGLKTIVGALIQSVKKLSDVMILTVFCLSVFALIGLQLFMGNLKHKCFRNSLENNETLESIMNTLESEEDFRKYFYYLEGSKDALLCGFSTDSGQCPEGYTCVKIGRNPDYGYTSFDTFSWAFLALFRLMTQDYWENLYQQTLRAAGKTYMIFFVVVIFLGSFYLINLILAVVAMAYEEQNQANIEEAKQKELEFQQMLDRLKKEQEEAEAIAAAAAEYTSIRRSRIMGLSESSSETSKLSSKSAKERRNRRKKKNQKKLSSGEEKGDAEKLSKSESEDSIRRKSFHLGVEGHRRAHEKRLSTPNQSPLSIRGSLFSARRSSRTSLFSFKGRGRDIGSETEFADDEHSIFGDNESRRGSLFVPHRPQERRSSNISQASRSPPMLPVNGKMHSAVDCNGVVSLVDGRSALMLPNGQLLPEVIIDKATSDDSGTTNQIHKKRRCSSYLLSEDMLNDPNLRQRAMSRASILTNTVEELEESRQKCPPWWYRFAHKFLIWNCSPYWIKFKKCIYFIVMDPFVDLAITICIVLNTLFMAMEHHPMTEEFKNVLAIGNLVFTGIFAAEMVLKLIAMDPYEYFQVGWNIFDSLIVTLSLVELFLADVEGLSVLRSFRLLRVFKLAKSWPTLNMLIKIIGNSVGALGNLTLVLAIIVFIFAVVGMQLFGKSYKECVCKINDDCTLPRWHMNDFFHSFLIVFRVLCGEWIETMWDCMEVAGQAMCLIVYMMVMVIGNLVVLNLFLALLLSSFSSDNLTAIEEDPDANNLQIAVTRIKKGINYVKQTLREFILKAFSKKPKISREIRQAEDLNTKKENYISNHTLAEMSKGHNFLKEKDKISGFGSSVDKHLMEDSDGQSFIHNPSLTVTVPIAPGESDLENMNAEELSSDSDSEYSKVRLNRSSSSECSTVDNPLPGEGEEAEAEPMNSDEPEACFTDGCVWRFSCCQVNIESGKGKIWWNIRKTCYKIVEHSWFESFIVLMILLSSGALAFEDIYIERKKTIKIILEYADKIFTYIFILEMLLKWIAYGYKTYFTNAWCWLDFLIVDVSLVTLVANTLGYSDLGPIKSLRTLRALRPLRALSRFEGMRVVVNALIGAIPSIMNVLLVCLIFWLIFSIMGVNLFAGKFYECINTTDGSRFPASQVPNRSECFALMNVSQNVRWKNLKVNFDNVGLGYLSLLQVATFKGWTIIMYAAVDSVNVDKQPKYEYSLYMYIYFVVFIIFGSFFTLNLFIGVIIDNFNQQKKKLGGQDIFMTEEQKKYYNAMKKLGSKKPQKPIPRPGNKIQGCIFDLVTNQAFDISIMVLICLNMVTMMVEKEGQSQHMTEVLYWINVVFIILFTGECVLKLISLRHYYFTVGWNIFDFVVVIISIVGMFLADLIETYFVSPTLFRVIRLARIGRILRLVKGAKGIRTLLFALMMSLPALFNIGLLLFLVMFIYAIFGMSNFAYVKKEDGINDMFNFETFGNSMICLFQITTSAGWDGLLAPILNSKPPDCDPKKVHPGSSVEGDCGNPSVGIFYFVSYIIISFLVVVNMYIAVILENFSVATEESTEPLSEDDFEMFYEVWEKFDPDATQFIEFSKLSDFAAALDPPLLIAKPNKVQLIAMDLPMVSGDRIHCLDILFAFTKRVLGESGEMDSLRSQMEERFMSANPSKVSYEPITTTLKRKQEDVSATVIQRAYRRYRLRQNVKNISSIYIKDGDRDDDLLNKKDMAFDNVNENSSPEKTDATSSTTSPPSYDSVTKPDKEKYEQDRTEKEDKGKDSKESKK

Row | SMILES | IC50 [nM]
1 | CN(c1cccc(F)c1)c1nc(N)nc(-c2noc(-c3ncccc3F)n2)n1 [Example 476, 2-N-(3-fluorophenyl)-6-[5-(3-fluoropyridin-2-yl)-1,2,4-oxadiazol-3-yl]-2-N-methyl-1,3,5-triazine-2,4-diamine] | 366
2 | CN(C)C(=O)c1ccc(-c2nc(-c3nc(N)nc(N(C)c4ccccc4)n3)no2)cn1 [Example 478, 5-{3-[4-Amino-6-(methyl-phenyl-amino)-[1,3,5]triazin-2-yl]-[1,2,4]oxadiazol-5-yl}-pyridine-2-carboxylic acid dimethylamide] | 8810
3 | CN(c1ccccc1)c1nc(N)nc(-c2noc(-c3cccnn3)n2)n1 [Example 479, 2-N-methyl-2-N-phenyl-6-[5-(pyridazin-3-yl)-1,2,4-oxadiazol-3-yl]-1,3,5-triazine-2,4-diamine] | 1140
4 | CCOc1cccnc1-c1nc(-c2nc(N)nc(N(C)c3ccccc3)n2)no1 [Example 480, 6-[5-(3-ethoxypyridin-2-yl)-1,2,4-oxadiazol-3-yl]-2-N-methyl-2-N-phenyl-1,3,5-triazine-2,4-diamine] | 313
5 | CN(c1ccccc1)c1nc(N)nc(-c2noc(-c3ncccc3NC3CC3)n2)n1 [Example 481, 6-{5-[3-(Cyclopropylamino)pyridin-2-yl]-1,2,4-oxadiazol-3-yl}-2-N-methyl-2-N-phenyl-1,3,5-triazine-2,4-diamine] | 1900
6 | CN(c1ccccc1)c1nc(N)nc(-c2noc(-c3ncccc3F)n2)n1 [Example 482, 6-[5-(3-Fluoropyridin-2-yl)-[1,2,4]oxadiazol-3-yl]-N-methyl-N-phenyl-[1,3,5]triazine-2,4-diamine] | 647
7 | COCCOc1cccnc1-c1nc(-c2nc(N)nc(N(C)c3ccccc3)n2)no1 [Example 483, 6-{5-[3-(2-methoxyethoxy)pyridin-2-yl]-1,2,4-oxadiazol-3-yl}-2-N-methyl-2-N-phenyl-1,3,5-triazine-2,4-diamine] | 2400
8 | CC(C)Oc1cccnc1-c1nc(-c2nc(N)nc(N(C)c3ccccc3)n2)no1 [Example 484, 2-N-methyl-2-N-phenyl-6-{5-[3-(propan-2-yloxy)pyridin-2-yl]-1,2,4-oxadiazol-3-yl}-1,3,5-triazine-2,4-diamine] | 695
9 | CN(c1ccccc1)c1nc(N)nc(-c2noc(-c3ncccc3OCC(F)(F)F)n2)n1 [Example 486, 2-N-methyl-2-N-phenyl-6-{5-[3-(2,2,2-trifluoroethoxy)pyridin-2-yl]-1,2,4-oxadiazol-3-yl}-1,3,5-triazine-2,4-diamine] | 1220
10 | CN(c1ccccc1)c1nc(N)nc(-c2noc(-c3ncccc3NCC3CC3)n2)n1 [Example 487, 6-{5-[3-(Cyclopropylmethylamino)-pyridin-2-yl]-[1,2,4]oxadiazol-3-yl}-N-methyl-N-phenyl-[1,3,5]triazine-2,4-diamine] | > 6590
11 | CN(c1ccccc1)c1nc(N)nc(-c2noc(-c3ncccc3NC3CCC3)n2)n1 [Example 488, 6-{5-[3-(cyclobutylamino)pyridin-2-yl]-1,2,4-oxadiazol-3-yl}-2-N-methyl-2-N-phenyl-1,3,5-triazine-2,4-diamine] | 838
12 | CN(c1ccccc1)c1nc(N)nc(-c2noc(-c3ncccc3N3CCOCC3)n2)n1 [Example 490, 2-N-methyl-6-{5-[3-(morpholin-4-yl)pyridin-2-yl]-1,2,4-oxadiazol-3-yl}-2-N-phenyl-1,3,5-triazine-2,4-diamine] | 464
13 | CN(c1ccccc1)c1nc(N)nc(-c2noc(-c3ncccc3OC3CCC3)n2)n1 [Example 491, 6-[5-(3-cyclobutoxypyridin-2-yl)-1,2,4-oxadiazol-3-yl]-2-N-methyl-2-N-phenyl-1,3,5-triazine-2,4-diamine] | 1040
14 | CC(C)OC1CN(c2nc(-c3nc(N)nc(N(C)c4ccccc4)n3)no2)C1 [Example 492, 6-[5-(3-Isopropoxyazetidin-1-yl)-[1,2,4]oxadiazol-3-yl]-N-methyl-N-phenyl-[1,3,5]triazine-2,4-diamine] | > 8080
15 | COC1CN(c2nc(-c3nc(N)nc(N(C)c4ccccc4)n3)no2)C1 [Example 493, 6-[5-(3-methoxyazetidin-1-yl)-1,2,4-oxadiazol-3-yl]-2-N-methyl-2-N-phenyl-1,3,5-triazine-2,4-diamine] | > 9350
16 | CN(c1ccccc1)c1nc(N)nc(-c2noc(N3CC(OCC(F)(F)F)C3)n2)n1 [Example 494, 2-N-methyl-2-N-phenyl-6-{5-[3-(2,2,2-trifluoroethoxy)azetidin-1-yl]-1,2,4-oxadiazol-3-yl}-1,3,5-triazine-2,4-diamine] | 1980
17 | CN(c1ccccc1)c1nc(N)nc(-c2noc(N3CC(COc4ccccc4)C3)n2)n1 [Example 495, N-Methyl-6-[5-(3-phenoxymethylazetidin-1-yl)-[1,2,4]oxadiazol-3-yl]-N-phenyl-[1,3,5]triazine-2,4-diamine] | 1910
18 | CN(c1ccccc1)c1nc(N)nc(-c2noc(N3CC(COCCC(F)(F)F)C3)n2)n1 [Example 496, 2-N-methyl-2-N-phenyl-6-(5-{3-[(3,3,3-trifluoropropoxy)methyl]azetidin-1-yl}-1,2,4-oxadiazol-3-yl)-1,3,5-triazine-2,4-diamine] | 1220
19 | CN(c1ccccc1)c1nc(N)nc(-c2noc(-c3ccc(COCC(F)(F)F)o3)n2)n1 [Example 497, 2-N-methyl-2-N-phenyl-6-(5-{5-[(2,2,2-trifluoroethoxy)methyl]furan-2-yl}-1,2,4-oxadiazol-3-yl)-1,3,5-triazine-2,4-diamine] | 473
20 | CN(c1ccccc1)c1nc(N)nc(-c2noc(N3CC(OCC4CC4)C3)n2)n1 [Example 498, 6-{5-[3-(cyclopropylmethoxy)azetidin-1-yl]-1,2,4-oxadiazol-3-yl}-2-N-methyl-2-N-phenyl-1,3,5-triazine-2,4-diamine] | 902
21 | CN(c1ccccc1)c1nc(N)nc(-c2noc(N3CC(Oc4ccccn4)C3)n2)n1 [Example 499, 2-N-methyl-2-N-phenyl-6-{5-[3-(pyridin-2-yloxy)azetidin-1-yl]-1,2,4-oxadiazol-3-yl}-1,3,5-triazine-2,4-diamine] | 4590
22 | CN(c1ccccc1)c1nc(N)nc(-c2noc(N3CC4CCC(C3)O4)n2)n1 [Example 500, 2-N-methyl-6-(5-{8-oxa-3-azabicyclo[3.2.1]octan-3-yl}-1,2,4-oxadiazol-3-yl)-2-N-phenyl-1,3,5-triazine-2,4-diamine] | > 9120
23 | CN(c1ccccc1)c1nc(N)nc(-c2noc(N3CCC(COCCC(F)(F)F)CC3)n2)n1 [Example 501, 2-N-methyl-2-N-phenyl-6-(5-{4-[(3,3,3-trifluoropropoxy)methyl]piperidin-1-yl}-1,2,4-oxadiazol-3-yl)-1,3,5-triazine-2,4-diamine] | 344
24 | Nc1nc(Nc2ccccc2)nc(-c2noc(-c3cccnc3OCC(F)(F)F)n2)n1 [Example 502, 2-N-phenyl-6-{5-[2-(2,2,2-trifluoroethoxy)pyridin-3-yl]-1,2,4-oxadiazol-3-yl}-1,3,5-triazine-2,4-diamine] | > 8950
25 | Nc1nc(Nc2ccccc2)nc(-c2noc(N3CC(Oc4ccccc4)C3)n2)n1 [Example 503, 6-[5-(3-phenoxyazetidin-1-yl)-1,2,4-oxadiazol-3-yl]-2-N-phenyl-1,3,5-triazine-2,4-diamine] | 461
